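These data come from cells grown in 96-well plates and exposed to compound for 48 hours at five concentrations. Abbreviation: GI50, concentration required for 50% inhibition of growth.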 The source made the active and inactive calls. Rule as the data show it: active = GI50 up to about 1.1 µM and inactive = higher.
How the values were obtained:
Test in all cases: NCI-60 cell line screen, 48 h
786-0 = tested on: 786-0
A498 = tested on: A498
A549 = tested on: A549
ACHN = tested on: ACHN
BT-549 = tested on: BT-549
CAKI-1 = tested on: CAKI-1
CCRF-CEM = tested on: CCRF-CEM
COLO 205 = tested on: COLO 205
DU-145 = tested on: DU-145
EKVX = tested on: EKVX
HCC 2998 = tested on: HCC 2998
HCT-116 = tested on: HCT-116
HCT-15 = tested on: HCT-15
HOP-62 = tested on: HOP-62
HT-29 = tested on: HT-29
Hs-578T = tested on: Hs-578T
IGROV-1 = tested on: IGROV-1
K562 = tested on: K562
KM12 = tested on: KM12
M14 = tested on: M14
MCF7 = tested on: MCF7
MDA-MB-231 = tested on: MDA-MB-231
MDA-MB-435 = tested on: MDA-MB-435
MDA-N = tested on: MDA-N
MOLT-4 = tested on: MOLT-4
Malme-3M = tested on: Malme-3M
NCI-H226 = tested on: NCI-H226
NCI-H23 = tested on: NCI-H23
NCI-H522 = tested on: NCI-H522
NCI/ADR-RES = tested on: NCI/ADR-RES
OVCAR-3 = tested on: OVCAR-3
OVCAR-4 = tested on: OVCAR-4
OVCAR-5 = tested on: OVCAR-5
OVCAR-8 = tested on: OVCAR-8
PC-3 = tested on: PC-3
RPMI-8226 = tested on: RPMI-8226
RXF 393 = tested on: RXF 393
SF-268 = tested on: SF-268
SF-295 = tested on: SF-295
SK-MEL-28 = tested on: SK-MEL-28
SK-MEL-2 = tested on: SK-MEL-2
SK-MEL-5 = tested on: SK-MEL-5
SK-OV-3 = tested on: SK-OV-3
SN12C = tested on: SN12C
SNB-19 = tested on: SNB-19
SNB-75 = tested on: SNB-75
SR = tested on: SR
SW-620 = tested on: SW-620
T47D = tested on: T47D
TK-10 = tested on: TK-10
U-251 = tested on: U-251
UACC-257 = tested on: UACC-257
UACC-62 = tested on: UACC-62
UO-31 = tested on: UO-31
HL-60 = tested on: HL-60
LOX IMVI = tested on: LOX IMVI
NCI-H460 = tested on: NCI-H460
SF-539 = tested on: SF-539

For `CN(C)C(=C1c2cc([N+](=O)[O-])ccc2-c2ccc([N+](=O)[O-])cc21)N(C)C`, the GI50 (786-0) was > 100 µM (inactive), the GI50 (A498) was > 100 µM (inactive) and the GI50 (A549) was > 100 µM (inactive). The GI50 (ACHN) was > 100 µM (inactive), the GI50 (BT-549) was > 100 µM (inactive) and the GI50 (CAKI-1) was 5.93 µM (inactive). For the same molecule, the GI50 (CCRF-CEM) was > 100 µM (inactive), the GI50 (COLO 205) was > 100 µM (inactive) and the GI50 (DU-145) was > 100 µM (inactive). For the same molecule, the GI50 (EKVX) was > 100 µM (inactive), the GI50 (HCC 2998) was > 100 µM (inactive) and the GI50 (HCT-116) was > 100 µM (inactive). The GI50 (HCT-15) was greater than 100 µM, the GI50 (HOP-62) was > 100 µM (inactive) and the GI50 (HT-29) was > 100 µM (inactive). For the same molecule, the GI50 (Hs-578T) was > 100 µM (inactive), the GI50 (IGROV-1) was > 100 µM (inactive) and the GI50 (K562) was > 100 µM (inactive). For the same molecule, the GI50 (KM12) was > 100 µM (inactive), the GI50 (M14) was > 100 µM (inactive) and the GI50 (MCF7) was > 100 µM (inactive). The GI50 (MDA-MB-231) was > 100 µM (inactive), the GI50 (MDA-MB-435) was > 100 µM (inactive) and the GI50 (MDA-N) was > 100 µM (inactive). For the same molecule, the GI50 (MOLT-4) was 5.24 µM (inactive), the GI50 (Malme-3M) was > 100 µM (inactive) and the GI50 (NCI-H226) was > 100 µM (inactive). For the same molecule, the GI50 (NCI-H23) was > 100 µM (inactive), the GI50 (NCI-H522) was > 100 µM (inactive) and the GI50 (NCI/ADR-RES) was > 100 µM (inactive). For the same molecule, the GI50 (OVCAR-3) was > 100 µM (inactive), the GI50 (OVCAR-4) was > 100 µM (inactive) and the GI50 (OVCAR-5) was > 100 µM (inactive). For the same molecule, the GI50 (OVCAR-8) was > 100 µM (inactive), the GI50 (PC-3) was > 100 µM (inactive) and the GI50 (RPMI-8226) was 3.32 µM (inactive). For the same molecule, the GI50 (RXF 393) was > 100 µM (inactive), the GI50 (SF-268) was > 100 µM (inactive) and the GI50 (SF-295) was > 100 µM (inactive). The GI50 (SK-MEL-28) was > 100 µM (inactive), the GI50 (SK-MEL-2) was > 100 µM (inactive) and the GI50 (SK-MEL-5) was > 100 µM (inactive). For the same molecule, the GI50 (SK-OV-3) was > 100 µM (inactive), the GI50 (SN12C) was > 100 µM (inactive) and the GI50 (SNB-19) was > 100 µM (inactive). The GI50 (SNB-75) was > 100 µM (inactive), the GI50 (SR) was 2.37 µM (inactive) and the GI50 (SW-620) was > 100 µM (inactive). The GI50 (T47D) was 4.11 µM (inactive), the GI50 (TK-10) was > 100 µM (inactive) and the GI50 (U-251) was > 100 µM (inactive). For the same molecule, the GI50 (UACC-257) was > 100 µM (inactive), the GI50 (UACC-62) was > 100 µM (inactive) and the GI50 (UO-31) was 56.2 µM (inactive).

`COC(=O)/C=C/[C@H]1[C@H](C)N1S(=O)(=O)c1ccc(C)cc1` (stereo not given in full) was tested, and the GI50 (786-0) was 82.4 µM (inactive), the GI50 (A498) was > 100 µM (inactive) and the GI50 (A549) was > 100 µM (inactive). The GI50 (ACHN) was 89.7 µM (inactive), the GI50 (BT-549) was > 100 µM (inactive) and the GI50 (CAKI-1) was > 100 µM (inactive). For the same molecule, the GI50 (CCRF-CEM) was > 100 µM (inactive), the GI50 (COLO 205) was > 100 µM (inactive) and the GI50 (DU-145) was > 100 µM (inactive). The GI50 (EKVX) was > 100 µM (inactive), the GI50 (HCC 2998) was > 100 µM (inactive) and the GI50 (HCT-116) was 41.8 µM (inactive). The GI50 (HCT-15) was greater than 100 µM, the GI50 (HL-60) was > 99.5 µM (inactive) and the GI50 (HOP-62) was > 100 µM (inactive). For the same molecule, the GI50 (HT-29) was > 100 µM (inactive), the GI50 (Hs-578T) was > 100 µM (inactive) and the GI50 (IGROV-1) was > 100 µM (inactive). For the same molecule, the GI50 (K562) was > 100 µM (inactive), the GI50 (KM12) was > 100 µM (inactive) and the GI50 (LOX IMVI) was 61.7 µM (inactive). For the same molecule, the GI50 (M14) was > 100 µM (inactive), the GI50 (MCF7) was 64.3 µM (inactive) and the GI50 (MDA-MB-231) was > 100 µM (inactive). For the same molecule, the GI50 (MDA-MB-435) was 56.5 µM (inactive), the GI50 (MDA-N) was > 100 µM (inactive) and the GI50 (MOLT-4) was 70.5 µM (inactive). For the same molecule, the GI50 (Malme-3M) was 50.2 µM (inactive), the GI50 (NCI-H226) was > 100 µM (inactive) and the GI50 (NCI-H23) was 74.3 µM (inactive). For the same molecule, the GI50 (NCI-H460) was > 100 µM (inactive), the GI50 (NCI-H522) was 48.6 µM (inactive) and the GI50 (NCI/ADR-RES) was > 100 µM (inactive). The GI50 (OVCAR-3) was 58.7 µM (inactive), the GI50 (OVCAR-4) was 56.8 µM (inactive) and the GI50 (OVCAR-5) was > 100 µM (inactive). For the same molecule, the GI50 (OVCAR-8) was > 100 µM (inactive), the GI50 (PC-3) was > 100 µM (inactive) and the GI50 (RPMI-8226) was 51.6 µM (inactive). For the same molecule, the GI50 (RXF 393) was > 100 µM (inactive), the GI50 (SF-268) was > 100 µM (inactive) and the GI50 (SF-295) was > 100 µM (inactive). The GI50 (SF-539) was 37 µM (inactive), the GI50 (SK-MEL-28) was > 100 µM (inactive) and the GI50 (SK-MEL-2) was 68.7 µM (inactive). For the same molecule, the GI50 (SK-MEL-5) was > 100 µM (inactive), the GI50 (SK-OV-3) was > 100 µM (inactive) and the GI50 (SN12C) was > 100 µM (inactive). For the same molecule, the GI50 (SNB-19) was > 100 µM (inactive), the GI50 (SR) was 31.6 µM (inactive) and the GI50 (SW-620) was 80.4 µM (inactive). For the same molecule, the GI50 (T47D) was > 100 µM (inactive), the GI50 (TK-10) was > 100 µM (inactive) and the GI50 (U-251) was > 100 µM (inactive). The GI50 (UACC-257) was > 100 µM (inactive) and the GI50 (UACC-62) was > 100 µM (inactive).

For `O/N=C1/Nc2ccccc2C(=S)N2CSCC12` (stereo not given), the GI50 (786-0) was 58.2 µM (inactive), the GI50 (A498) was 68.7 µM (inactive) and the GI50 (A549) was 83.2 µM (inactive). For the same molecule, the GI50 (ACHN) was > 100 µM (inactive), the GI50 (BT-549) was > 100 µM (inactive) and the GI50 (CAKI-1) was > 100 µM (inactive). The GI50 (CCRF-CEM) was 20.2 µM (inactive), the GI50 (COLO 205) was 41.9 µM (inactive) and the GI50 (DU-145) was > 100 µM (inactive). The GI50 (EKVX) was > 100 µM (inactive), the GI50 (HCC 2998) was 32.4 µM (inactive) and the GI50 (HCT-116) was 43.6 µM (inactive). The GI50 (HCT-15) was greater than 100 µM, the GI50 (HOP-62) was > 100 µM (inactive) and the GI50 (HT-29) was 36.9 µM (inactive). For the same molecule, the GI50 (Hs-578T) was > 100 µM (inactive), the GI50 (IGROV-1) was > 100 µM (inactive) and the GI50 (K562) was 22.8 µM (inactive). For the same molecule, the GI50 (KM12) was 33 µM (inactive), the GI50 (LOX IMVI) was 62.8 µM (inactive) and the GI50 (M14) was 81.3 µM (inactive). For the same molecule, the GI50 (MCF7) was 52.5 µM (inactive), the GI50 (MDA-MB-231) was > 100 µM (inactive) and the GI50 (MDA-MB-435) was 19.4 µM (inactive). For the same molecule, the GI50 (MDA-N) was 18.3 µM (inactive), the GI50 (MOLT-4) was > 100 µM (inactive) and the GI50 (Malme-3M) was > 100 µM (inactive). The GI50 (NCI-H226) was > 100 µM (inactive), the GI50 (NCI-H460) was 17.3 µM (inactive) and the GI50 (NCI-H522) was 37 µM (inactive). For the same molecule, the GI50 (NCI/ADR-RES) was > 100 µM (inactive), the GI50 (OVCAR-3) was > 100 µM (inactive) and the GI50 (OVCAR-4) was > 100 µM (inactive). For the same molecule, the GI50 (OVCAR-5) was > 100 µM (inactive), the GI50 (OVCAR-8) was > 100 µM (inactive) and the GI50 (PC-3) was 73.8 µM (inactive). The GI50 (RPMI-8226) was > 100 µM (inactive), the GI50 (RXF 393) was > 100 µM (inactive) and the GI50 (SF-268) was 78 µM (inactive). For the same molecule, the GI50 (SF-295) was 63.1 µM (inactive), the GI50 (SK-MEL-28) was > 100 µM (inactive) and the GI50 (SK-MEL-2) was > 100 µM (inactive). For the same molecule, the GI50 (SK-MEL-5) was 23.4 µM (inactive), the GI50 (SK-OV-3) was > 100 µM (inactive) and the GI50 (SN12C) was 34 µM (inactive). For the same molecule, the GI50 (SNB-19) was 50.4 µM (inactive), the GI50 (SNB-75) was 16.4 µM (inactive) and the GI50 (SR) was 22.9 µM (inactive). The GI50 (SW-620) was 35.6 µM (inactive), the GI50 (T47D) was 54.2 µM (inactive) and the GI50 (TK-10) was > 100 µM (inactive). The GI50 (U-251) was > 100 µM (inactive), the GI50 (UACC-257) was > 100 µM (inactive) and the GI50 (UACC-62) was 87.5 µM (inactive). For the same molecule, the GI50 (UO-31) was > 100 µM (inactive).

From ChEMBL document CHEMBL1201862, “PubChem BioAssay data set” (2004)
